Assay results from US9708333B2, “Fused bicyclic 1,2,4-triazine compounds as TAM inhibitors” (Incyte Corporation, priority 2015, dated 2017).

Assays:
[1] = molecular target: PI3Kδ (Homo sapiens (Human), UniProt O00329); conditions: cited from earlier work
[2] = molecular target: phosphor-Axl (Homo sapiens (Human), UniProt P30530); assay: TAM Enzymatic Assay (HTRF), phosphor-Axl; format: biochemical; conditions: 5.1 nM autophosphorylated Axl, 60 min; read-out: Phos-Axl IC50
[3] = molecular target: c-Mer (Homo sapiens (Human), UniProt Q12866); assay: TAM Enzymatic Assay (HTRF), c-Mer; format: biochemical; conditions: 0.0625 nM c-Mer, ATP-containing substrate solution, 60 min
Sequence of c-Mer (Q12866 21-999): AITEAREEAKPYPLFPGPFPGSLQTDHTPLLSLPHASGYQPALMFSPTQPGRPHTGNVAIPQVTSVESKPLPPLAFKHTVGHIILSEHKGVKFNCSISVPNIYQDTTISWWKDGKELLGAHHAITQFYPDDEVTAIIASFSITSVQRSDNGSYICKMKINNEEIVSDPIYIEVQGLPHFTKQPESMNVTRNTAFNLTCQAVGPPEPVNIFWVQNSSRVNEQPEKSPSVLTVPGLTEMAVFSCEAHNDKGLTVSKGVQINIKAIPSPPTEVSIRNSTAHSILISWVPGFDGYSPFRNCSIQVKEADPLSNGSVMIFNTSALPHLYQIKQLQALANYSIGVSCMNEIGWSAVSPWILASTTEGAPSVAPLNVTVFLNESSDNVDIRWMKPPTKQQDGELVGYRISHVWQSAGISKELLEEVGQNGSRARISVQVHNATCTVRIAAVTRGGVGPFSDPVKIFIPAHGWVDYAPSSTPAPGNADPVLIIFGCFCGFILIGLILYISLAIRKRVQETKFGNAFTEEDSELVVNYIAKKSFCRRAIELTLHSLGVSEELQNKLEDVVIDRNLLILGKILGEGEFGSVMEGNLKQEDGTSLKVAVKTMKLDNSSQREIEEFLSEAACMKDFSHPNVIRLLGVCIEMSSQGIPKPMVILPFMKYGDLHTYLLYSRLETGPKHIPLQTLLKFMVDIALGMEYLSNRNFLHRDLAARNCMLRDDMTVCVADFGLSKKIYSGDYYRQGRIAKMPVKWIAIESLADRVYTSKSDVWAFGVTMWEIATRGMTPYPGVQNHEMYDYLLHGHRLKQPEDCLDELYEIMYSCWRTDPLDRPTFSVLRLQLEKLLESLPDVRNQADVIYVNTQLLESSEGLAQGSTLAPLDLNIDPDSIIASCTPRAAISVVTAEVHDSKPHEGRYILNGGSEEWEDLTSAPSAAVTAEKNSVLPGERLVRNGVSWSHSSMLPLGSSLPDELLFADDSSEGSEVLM

[4] = molecular target: Tyro3 (Homo sapiens (Human), UniProt Q06418); assay: TAM Enzymatic Assay (HTRF), Tyro3; format: biochemical; conditions: 0.366 nM Tyro3, 60 min
Sequence of Tyro3 (Q06418 41-890): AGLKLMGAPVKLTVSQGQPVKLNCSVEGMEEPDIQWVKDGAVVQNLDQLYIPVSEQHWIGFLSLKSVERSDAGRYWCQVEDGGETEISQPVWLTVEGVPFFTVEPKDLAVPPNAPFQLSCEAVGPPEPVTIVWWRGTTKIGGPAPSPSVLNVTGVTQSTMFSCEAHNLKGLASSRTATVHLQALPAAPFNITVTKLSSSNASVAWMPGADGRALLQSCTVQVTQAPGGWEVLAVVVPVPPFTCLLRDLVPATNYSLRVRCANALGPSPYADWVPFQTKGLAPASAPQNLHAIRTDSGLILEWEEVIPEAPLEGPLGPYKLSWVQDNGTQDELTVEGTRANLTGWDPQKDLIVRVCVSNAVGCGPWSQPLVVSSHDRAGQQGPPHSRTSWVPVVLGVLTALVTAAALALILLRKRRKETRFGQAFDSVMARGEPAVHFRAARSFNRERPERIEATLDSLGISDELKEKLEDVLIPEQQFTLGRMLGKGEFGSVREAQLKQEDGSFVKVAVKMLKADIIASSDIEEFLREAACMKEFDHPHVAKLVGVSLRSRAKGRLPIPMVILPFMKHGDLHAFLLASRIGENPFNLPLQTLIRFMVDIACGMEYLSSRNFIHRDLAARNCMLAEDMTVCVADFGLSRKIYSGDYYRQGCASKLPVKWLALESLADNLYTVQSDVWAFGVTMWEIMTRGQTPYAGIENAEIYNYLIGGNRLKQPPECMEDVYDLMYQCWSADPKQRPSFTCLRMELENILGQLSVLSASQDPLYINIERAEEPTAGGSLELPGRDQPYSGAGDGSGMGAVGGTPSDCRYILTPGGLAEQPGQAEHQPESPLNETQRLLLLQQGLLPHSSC
Description: The kinase assay buffer contained 50 mM HEPES, pH7.5, 10 mM MgCl2, 1 mM EGTA, 0.01% NP-40 and 2 mM DTT. 0.1 ul test compounds dissolved in DMSO were transferred from compound plates to white 384-well assay plates (Greiner [sequence] plates). […] 4 ul enzyme solution (or assay buffer for the enzyme blank) was added to the appropriate wells in each plate, and then 4 ul/well substrate solution was added to initiate the reaction. The plate was protected from light and incubated at room temperature for 60 min. […] The plate was incubated for 1 h at room temperature, and HTRF (homogenous time resolved fluorescence) signal was measured on a PHERAstar FS plate reader (BMG labtech). Percentage of inhibition was calculated for each concentration and IC50 value was generated from curve fitting with GraphPad Prism software.

[5] = molecular target: JAK1 (Homo sapiens (Human), UniProt P23458); conditions: selectivity ratio, IC50 at 1 mM ATP; cited from earlier work

Sequence of phosphor-Axl (P30530 26-894): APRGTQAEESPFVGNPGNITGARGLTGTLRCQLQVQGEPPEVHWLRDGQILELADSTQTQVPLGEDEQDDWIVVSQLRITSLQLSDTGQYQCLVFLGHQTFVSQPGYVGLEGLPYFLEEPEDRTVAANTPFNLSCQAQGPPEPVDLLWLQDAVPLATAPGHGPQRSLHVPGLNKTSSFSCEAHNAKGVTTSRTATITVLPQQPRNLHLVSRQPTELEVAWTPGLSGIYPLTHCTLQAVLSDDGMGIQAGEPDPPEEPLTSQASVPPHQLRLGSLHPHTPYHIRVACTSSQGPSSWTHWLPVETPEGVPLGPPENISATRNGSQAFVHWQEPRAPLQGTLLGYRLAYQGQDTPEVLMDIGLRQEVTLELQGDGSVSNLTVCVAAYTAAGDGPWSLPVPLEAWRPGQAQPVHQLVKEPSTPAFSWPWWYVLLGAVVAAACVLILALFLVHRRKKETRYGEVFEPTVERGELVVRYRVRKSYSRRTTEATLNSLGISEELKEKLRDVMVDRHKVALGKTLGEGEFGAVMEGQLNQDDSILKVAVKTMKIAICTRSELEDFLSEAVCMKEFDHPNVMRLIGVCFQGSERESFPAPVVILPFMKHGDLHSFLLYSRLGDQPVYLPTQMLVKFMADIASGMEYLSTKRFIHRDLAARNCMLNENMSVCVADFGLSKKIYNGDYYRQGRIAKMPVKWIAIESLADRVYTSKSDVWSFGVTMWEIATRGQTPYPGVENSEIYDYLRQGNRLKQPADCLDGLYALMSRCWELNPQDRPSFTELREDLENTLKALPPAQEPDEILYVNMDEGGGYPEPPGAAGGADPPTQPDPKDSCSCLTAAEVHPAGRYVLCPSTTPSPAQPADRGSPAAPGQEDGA
Sequence of PI3Kδ (O00329 whole entry, species assumed): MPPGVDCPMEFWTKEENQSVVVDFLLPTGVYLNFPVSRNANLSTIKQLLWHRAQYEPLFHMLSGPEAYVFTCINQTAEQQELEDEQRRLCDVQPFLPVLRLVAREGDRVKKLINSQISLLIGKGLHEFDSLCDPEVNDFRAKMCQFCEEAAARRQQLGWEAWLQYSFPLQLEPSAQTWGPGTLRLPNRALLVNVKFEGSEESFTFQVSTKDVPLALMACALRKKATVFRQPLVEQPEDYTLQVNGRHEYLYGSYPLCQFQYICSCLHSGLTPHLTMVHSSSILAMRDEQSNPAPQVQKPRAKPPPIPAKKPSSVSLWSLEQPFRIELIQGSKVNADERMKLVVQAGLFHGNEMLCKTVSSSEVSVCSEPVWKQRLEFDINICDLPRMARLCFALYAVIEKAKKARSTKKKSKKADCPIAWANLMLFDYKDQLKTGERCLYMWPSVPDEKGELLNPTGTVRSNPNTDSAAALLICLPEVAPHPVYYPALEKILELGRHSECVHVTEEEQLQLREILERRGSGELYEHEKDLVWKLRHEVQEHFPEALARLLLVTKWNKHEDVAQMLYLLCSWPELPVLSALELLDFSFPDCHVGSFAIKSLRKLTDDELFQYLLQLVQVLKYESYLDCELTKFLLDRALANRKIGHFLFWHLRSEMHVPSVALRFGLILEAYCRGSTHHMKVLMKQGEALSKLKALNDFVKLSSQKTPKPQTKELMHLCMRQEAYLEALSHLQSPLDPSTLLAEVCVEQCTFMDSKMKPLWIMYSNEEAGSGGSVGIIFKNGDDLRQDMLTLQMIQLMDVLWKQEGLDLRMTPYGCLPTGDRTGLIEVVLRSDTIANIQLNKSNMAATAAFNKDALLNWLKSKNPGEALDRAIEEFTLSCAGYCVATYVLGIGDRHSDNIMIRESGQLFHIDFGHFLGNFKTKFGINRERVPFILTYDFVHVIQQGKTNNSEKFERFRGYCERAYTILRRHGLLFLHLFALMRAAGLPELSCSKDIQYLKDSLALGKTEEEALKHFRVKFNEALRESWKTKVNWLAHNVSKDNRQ
Sequence of PI3Kδ (P27986 whole entry partner, species assumed): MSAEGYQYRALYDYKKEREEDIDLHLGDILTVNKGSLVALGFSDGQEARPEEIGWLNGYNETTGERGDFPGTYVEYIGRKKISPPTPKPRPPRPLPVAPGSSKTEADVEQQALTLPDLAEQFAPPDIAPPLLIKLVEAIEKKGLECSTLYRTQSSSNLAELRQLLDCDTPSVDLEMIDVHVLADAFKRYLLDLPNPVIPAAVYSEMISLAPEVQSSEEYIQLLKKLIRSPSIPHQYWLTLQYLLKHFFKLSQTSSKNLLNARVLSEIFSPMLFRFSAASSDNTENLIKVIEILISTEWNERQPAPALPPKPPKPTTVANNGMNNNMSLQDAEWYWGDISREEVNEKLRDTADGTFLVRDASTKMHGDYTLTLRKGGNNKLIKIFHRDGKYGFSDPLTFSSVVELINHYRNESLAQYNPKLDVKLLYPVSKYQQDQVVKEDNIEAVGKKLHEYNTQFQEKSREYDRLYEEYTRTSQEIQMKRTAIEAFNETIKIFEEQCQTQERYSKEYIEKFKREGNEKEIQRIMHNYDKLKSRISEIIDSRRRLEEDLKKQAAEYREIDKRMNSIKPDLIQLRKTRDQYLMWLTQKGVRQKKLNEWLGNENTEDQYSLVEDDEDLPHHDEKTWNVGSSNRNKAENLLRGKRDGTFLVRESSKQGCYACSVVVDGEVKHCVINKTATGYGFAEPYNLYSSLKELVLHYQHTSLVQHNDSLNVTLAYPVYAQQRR

Compound | IC50 [3] [nM] | IC50 [4] [nM] | other results
COc1c(C(C)n2nc(C)c3c(N)ncnc32)cc(Cl)c(C#N)c1C1CN(C[C@H](C)O)C1 (stereo partly drawn) [Compound 29, 4-[1-(4-amino-3-methyl-1H-pyrazolo[3,4-d]pyrimidin-1-yl)ethyl]-6-chloro-2-{1-[(2S)-2-hydroxypropyl]azetidin-3-yl}-3-methoxybenzonitrile] |  |  | IC50 [1]: < 50 nM
CCCCNc1ncc2c(-c3ccc(N4CCOCC4)c(F)c3)nc(C3CCC(O)CC3)n2n1 (single isomer, unassigned) [7 (2nd peak), 4-[2-(Butylamino)-5-(3-fluoro-4-morpholin-4-ylphenyl)imidazo[5,1-f][1,2,4]triazin-7-yl]cyclohexanol] |  |  | IC50 [2]: > 1000 nM
COc1c(C(C)n2nc(C)c3c(N)ncnc32)cc(Cl)c(C#N)c1C1CN(CCO)C1 (stereo not drawn) [Compound 30, 4-[1-(4-amino-3-methyl-1H-pyrazolo[3,4-d]pyrimidin-1-yl)ethyl]-6-chloro-2-[1-(2-hydroxyethyl)azetidin-3-yl]-3-methoxybenzonitrile] |  |  | IC50 [1]: < 50 nM
CCCCNc1ncc2c(-c3ccc(CN4CCN(C)CC4)cc3)nc([C@H]3CC[C@H](O)CC3)n2n1 [1 (1st peak, trans-), trans-4-(2-(Butylamino)-5-{4-[(4-methylpiperazin-1-yl)methyl]phenyl}imidazo[5,1-f][1,2,4]triazin-7-yl)cyclohexanol] | ≤ 100 | 100 to 500 | IC50 [2]: ≤ 100 nM
CCCCNc1ncc2c(-c3ccc(CN4CCN(C)CC4)cc3)nc([C@H]3CC[C@@H](O)CC3)n2n1 [1 (2nd peak, cis-), cis-4-(2-(Butylamino)-5-{4-[(4-methylpiperazin-1-yl)methyl]phenyl}imidazo[5,1-f][1,2,4]triazin-7-yl)cyclohexanol] | ≤ 100 | 100 to 500 | 
CCOc1c(C(C)n2nc(C)c3c(N)ncnc32)cc(Cl)c(F)c1C1CNC(=O)C1 (single isomer, unassigned) [Compound 32b, 4-{3-[1-(4-amino-3-methyl-1H-pyrazolo[3,4-d]pyrimidin-1-yl)ethyl]-5-chloro-2-ethoxy-6-fluorophenyl}pyrrolidin-2-one] |  |  | IC50 [1]: < 50 nM
CCCCNc1ncc2c(-c3ccc(CN4CCOCC4)cc3)nc([C@H]3CC[C@H](O)CC3)n2n1 [2 (1st peak, trans-), trans-4-{2-(Butylamino)-5-[4-(morpholin-4-ylmethyl)phenyl]imidazo[5,1-f][1,2,4]triazin-7-yl}cyclohexanol] | ≤ 100 | 100 to 500 | 
N#CCC1(n2cc(-c3ncnc4[nH]ccc34)cn2)CN(C2CCN(C(=O)c3ccnc(C(F)(F)F)c3F)CC2)C1 [Compound 7, {1-{1-[3-Fluoro-2-(trifluoromethyl)isonicotinoyl]piperidin-4-yl}-3-[4-(7H-pyrrolo[2,3-d]pyrimidin-4-yl)-1H-pyrazol-1-yl]azetidin-3-yl}acetonitrile] |  |  | JAK2/JAK1 [5]: >10
CCOc1c(C(C)n2nc(C)c3c(N)ncnc32)cc(Cl)c(F)c1C1CNC(=O)C1 (single isomer, unassigned) [Compound 32c, 4-{3-[1-(4-amino-3-methyl-1H-pyrazolo[3,4-d]pyrimidin-1-yl)ethyl]-5-chloro-2-ethoxy-6-fluorophenyl}pyrrolidin-2-one] |  |  | IC50 [1]: < 50 nM

More lines, main results first:

IC50 [3] [nM] | IC50 [4] [nM] | Compound | other results
≤ 100 |  | CCCCNc1ncc2c(-c3ccc(CO)cc3)nc([C@H]3CC[C@H](O)CC3)n2n1 [3 (1st peak, trans-), trans-4-{2-(Butylamino)-5-[4-(hydroxymethyl)phenyl]imidazo[5,1-f][1,2,4]triazin-7-yl}cyclohexanol] | 
> 1000 |  | CCCCNc1ncc2c(-c3ccc(CO)cc3)nc([C@H]3CC[C@@H](O)CC3)n2n1 [3 (2nd peak, cis-), cis-4-{2-(Butylamino)-5-[4-(hydroxymethyl)phenyl]imidazo[5,1-f][1,2,4]triazin-7-yl}cyclohexanol] | 
≤ 100 |  | CCCCNc1ncc2c(-c3cccc(CO)c3)nc(C3CCC(O)CC3)n2n1 (single isomer, unassigned) [8 (1st peak), 4-{2-(Butylamino)-5-[3-(hydroxymethyl)phenyl]imidazo[5,1-f][1,2,4]triazin-7-yl}cyclohexanol] | 
 | 500 to 1000 | CCCCNc1ncc2c(-c3ccc(N4CCOCC4)c(F)c3)nc(C3CCC(O)CC3)n2n1 (single isomer, unassigned) [7 (1st peak), 4-[2-(Butylamino)-5-(3-fluoro-4-morpholin-4-ylphenyl)imidazo[5,1-f][1,2,4]triazin-7-yl]cyclohexanol] | IC50 [2]: 100 to 500 nM
≤ 100 | 100 to 500 | CCCCNc1ncc2c(-c3ccc(CN4CCOCC4)cc3)nc([C@H]3CC[C@@H](O)CC3)n2n1 [2 (2nd peak, cis-), cis-4-{2-(Butylamino)-5-[4-(morpholin-4-ylmethyl)phenyl]imidazo[5,1-f][1,2,4]triazin-7-yl}cyclohexanol] | IC50 [2]: 100 to 500 nM
